The source of these data is patent US20230295118A1 (EnhancedBio Inc., priority 2022, published 2023).

Common to all, as to assay type: cell-based
Test [1] deals with mantle cell lymphoma cell (Mino or JeKo-1). The test can be described thus: Antiproliferative effect, MTS cell viability assay. The settings on record: 72 h; for IC50: mantle cell lymphoma cell (Mino or JeKo-1), MTS assay, read-out: IC50 (anti-proliferation); for inhibition of cell proliferation of Mino cells: 0-1 μM, result in words. The gist of the method: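 Mino cells treated with compounds at 0, 0.0001, 0.001, 0.01, 0.1, 1 μM for 72 h; palbociclib and abemaciclib as positive controls. Viability by MTS, formazan absorbance read at 490 nm.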

For another test, the target named is T1, CDK4 (Homo sapiens, UniProt P11802).
T1 construct: endogenous in cells
T1 sequence (P11802 whole entry): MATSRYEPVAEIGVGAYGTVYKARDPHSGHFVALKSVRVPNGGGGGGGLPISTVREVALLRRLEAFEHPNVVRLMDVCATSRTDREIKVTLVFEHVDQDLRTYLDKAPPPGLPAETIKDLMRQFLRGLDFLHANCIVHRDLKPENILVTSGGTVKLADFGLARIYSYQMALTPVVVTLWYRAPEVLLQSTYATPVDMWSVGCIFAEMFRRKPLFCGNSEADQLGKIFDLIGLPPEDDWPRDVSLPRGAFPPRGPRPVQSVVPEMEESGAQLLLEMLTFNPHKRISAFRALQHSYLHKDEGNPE
The test can be described thus: CDK4 degradation (DC50, Dmax).

The target in another test is T2, CDK6 (Homo sapiens, UniProt Q00534).
T2 construct: endogenous in cells
T2 sequence (Q00534 whole entry): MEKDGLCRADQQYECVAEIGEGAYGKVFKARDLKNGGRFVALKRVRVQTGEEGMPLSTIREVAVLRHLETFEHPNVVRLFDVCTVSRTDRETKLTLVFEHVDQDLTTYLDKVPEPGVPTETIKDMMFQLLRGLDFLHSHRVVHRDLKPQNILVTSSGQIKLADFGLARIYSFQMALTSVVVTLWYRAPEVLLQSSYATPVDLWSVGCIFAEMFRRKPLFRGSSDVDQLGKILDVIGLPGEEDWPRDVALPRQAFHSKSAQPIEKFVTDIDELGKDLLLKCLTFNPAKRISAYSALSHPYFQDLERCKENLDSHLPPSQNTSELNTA
The test can be described thus: CDK6 degradation (DC50, Dmax).

The term DC50 denotes the midpoint of the concentration-degradation curve. A high value points to degradation only at high concentration. In general, Dmax refers to the largest share of the target that was removed.

In the case of `CC(=O)c1c(C)c2cnc(Nc3ccc(N4CCN(C(=O)C5CN(c6ccc7c(c6)C(=O)N(C6CCC(=O)NC6=O)C7=O)C5)CC4)cn3)nc2n(C2CCCC2)c1=O` (centres unmarked) [Compound 121, 5-(3-(4-(6-((6-acetyl-8-cyclopentyl-5-methyl-7-oxo-7,8-dihydropyrido[2,3-d]pyrimidin-2-yl)amino)pyridin-3-yl)piperazine-1-carbonyl)azetidin-1-yl)-2-(2,6-dioxopiperidin-3-yl)isoindoline-1,3-dione], in test [1], the IC50 is less than 50 nM. The DC50 at CDK4 and on CDK6 was less than 50 nM each time. In addition, the maximal degradation (Dmax) at CDK4 and on CDK6 was greater than 80% each time.

As for `CC(=O)c1c(C)c2cnc(Nc3ccc(C4CCN(CC5CN(c6ccc(C(=O)NC7CCC(=O)NC7=O)cc6)C5)CC4)cn3)nc2n(C2CCCC2)c1=O` (centres unmarked) [Compound 127, 4-(3-((4-(6-((6-acetyl-8-cyclopentyl-5-methyl-7-oxo-7,8-dihydropyrido[2,3-d]pyrimidin-2-yl)amino)pyridin-3-yl)piperidin-1-y)methyl)azetidin-1-yl)-N-(2,6-dioxopiperidin-3-yl)benzamide], the IC50 in test [1] was less than 50 nM. At CDK4, this compound gave a DC50 of 50 to 200 nM and a Dmax greater than 80%. In addition, at CDK6, the half-maximal degradation concentration (DC50) was in the range of 50 to 200 nM and the maximal degradation (Dmax) is greater than 80%.

For the compound `CC(=O)c1c(C)c2cnc(Nc3ccc(N4CCN(CCCCNc5ccc6c(c5)C(=O)N(C5CCC(=O)NC5=O)C6=O)CC4)cn3)nc2n(C2CCCC2)c1=O` (centres unmarked) [Compound 53, 5-((4-(4-(6-((6-acetyl-8-cyclopentyl-5-methyl-7-oxo-7,8-dihydropyrido[2,3-d]pyrimidin-2-yl)amino)pyridin-3-yl)piperazin-1-yl)butyl)amino)-2-(2,6-dioxopiperidin-3-yl)isoindoline-1,3-dione], the IC50 in test [1] was less than 50 nM. Moreover, on CDK4, the half-maximal degradation concentration (DC50) fell in the range of 50 to 200 nM and the greatest degradation seen (Dmax) was greater than 60%. For the same compound, at CDK6, the 50% degradation concentration (DC50) lay in the range of 50 to 200 nM and the greatest degradation seen (Dmax) was greater than 80%.

As for `CC(=O)c1c(C)c2cnc(Nc3ccc(N4CCN(CC5CCN(c6ccc7c(c6)C(=O)N(C6CCC(=O)NC6=O)C7=O)CC5)CC4)cn3)nc2n(C2CCCC2)c1=O` (centres unmarked) [Compound 65, 5-(4-((4-(6-((6-acetyl-8-cyclopentyl-5-methyl-7-oxo-7,8-dihydropyrido[2,3-d]pyrimidin-2-yl)amino)pyridin-3-yl)piperazin-1-yl)methyl)piperidin-1-yl)-2-(2,6-dioxopiperidin-3-yl) isoindoline-1,3-dione], in test [1], the IC50 is less than 50 nM and the “inhibition of cell proliferation of Mino cells” value was “dose-dependent inhibition of cell proliferation”. On CDK4, the DC50 is less than 50 nM and the Dmax was greater than 80%. Besides, on CDK6, the DC50 was less than 50 nM and the Dmax is greater than 80%.

As to `CC(=O)c1c(C)c2cnc(Nc3ccc(N4CCN(CC5CCN(c6ccc(N7CCC(=O)NC7=O)cc6)CC5)CC4)cn3)nc2n(C2CCCC2)c1=O` [Compound 112, 1-(4-(4-((4-(6-((6-acetyl-8-cyclopentyl-5-methyl-7-oxo-7,8-dihydropyrido[2,3-d]pyrimidin-2-yl)amino)pyridin-3-yl)piperazin-1-yl)methyl)piperidin-1-yl)phenyl) dihydropyrimidine-2,4(1H,3H)-dione], in test [1], the IC50 is less than 50 nM. On CDK4, this compound yielded a DC50 of less than 50 nM and a Dmax greater than 80%. At CDK6, this compound showed a DC50 of 50 to 200 nM and a maximal degradation (Dmax) greater than 80%.

For the compound `CC(=O)c1c(C)c2cnc(Nc3ccc(N4CCN(CC5CN(c6ccc(NC7CCC(=O)NC7=O)cc6)C5)CC4)cn3)nc2n(C2CCCC2)c1=O` (centres unmarked) [Compound 120, 3-((4-(3-((4-(6-((6-acetyl-8-cyclopentyl-5-methyl-7-oxo-7,8-dihydropyrido[2,3-d]pyrimidin-2-yl)amino)pyridin-3-yl)piperazin-1-yl)methyl)azetidin-1-yl)phenyl)amino) piperidine-2,6-dione], the IC50 in test [1] is less than 50 nM. Further, at CDK4, the DC50 is less than 50 nM and the Dmax was greater than 80%. At CDK6, this compound returned a DC50 of 50 to 200 nM and a Dmax greater than 80%.

In the case of `Cc1nc2c(F)cc(-c3nc(Nc4ccc(CC5CCN(CC6CN(c7ccc(C(=O)NC8CCC(=O)NC8=O)cc7)C6)CC5)cn4)ncc3F)cc2n1C(C)C` (centres unmarked) [Compound 141, N-(2,6-dioxopiperidin-3-yl)-4-(3-((4-((6-{(5-fluoro-4-(4-fluoro-1-isopropyl-2-methyl-1H-benzo[d]imidazol-6-yl)pyrimidin-2-yl)amino)pyridin-3-yl)methyl)piperidin-1-yl)methyl)azetidin-1-yl)benzamide], in test [1], the IC50 is less than 50 nM. At CDK4, this compound had a DC50 of 50 to 200 nM and a Dmax greater than 80%. On CDK6, this compound came in with a half-maximal degradation concentration (DC50) of 50 to 200 nM and a Dmax greater than 80%.

For `CC(=O)c1c(C)c2cnc(Nc3ccc(N4CCN(CCNc5ccc6c(c5)C(=O)N(C5CCC(=O)NC5=O)C6=O)CC4)cn3)nc2n(C2CCCC2)c1=O` (centres unmarked) [Compound 47, 5-((2-(4-(6-((6-acetyl-8-cyclopentyl-5-methyl-7-oxo-7,8-dihydropyrido[2,3-d]pyrimidin-2-yl)amino)pyridin-3-yl)piperazin-1-yl)ethyl)amino)-2-(2,6-dioxopiperidin-3-yl)isoindoline-1,3-dione], in test [1], the IC50 was less than 50 nM and the “inhibition of cell proliferation of Mino cells” value is “dose-dependent inhibition of cell proliferation”. In addition, on CDK4, the DC50 is less than 50 nM and the Dmax was greater than 80%. On CDK6, this compound gave a DC50 of less than 50 nM and a Dmax greater than 80%.

Regarding `CC(=O)c1c(C)c2cnc(Nc3ccc(N4CCN(CC5CCN(C(=O)N6CCC(c7ccc8c(c7)CN(C7CCC(=O)NC7=O)C8=O)CC6)CC5)CC4)cn3)nc2n(C2CCCC2)c1=O` (centres unmarked) [Compound 34], in test [1], the IC50 is greater than 200 nM. The DC50 at CDK4 and at CDK6 was greater than 200 nM each time. The Dmax on CDK4 and at CDK6 was greater than 50% in each case.

Regarding `CC(=O)c1c(C)c2cnc(Nc3ccc(N4CCN(C(=O)C5CN(c6ccc(C(=O)NC7CCC(=O)NC7=O)cc6)C5)CC4)cn3)nc2n(C2CCCC2)c1=O` (centres unmarked) [Compound 123, 4-(3-(4-(6-((6-acetyl-8-cyclopentyl-5-methyl-7-oxo-7,8-dihydropyrido[2,3-d]pyrimidin-2-yl)amino)pyridin-3-yl)piperazine-1-carbonyl)azetidin-1-yl)-N-(2,6-dioxopiperidin-3-yl)benzamide], the IC50 in test [1] was less than 50 nM. On CDK4, this compound yielded a 50% degradation concentration (DC50) of less than 50 nM and a Dmax greater than 60%. At CDK6, this compound showed a DC50 of less than 50 nM and a Dmax greater than 60%.

Take `CC(=O)c1c(C)c2cnc(Nc3ccc(N4CCN(CCN(C)c5ccc6c(c5)C(=O)N(C5CCC(=O)NC5=O)C6=O)CC4)cn3)nc2n(C2CCCC2)c1=O` (centres unmarked) [Compound 55, 5-((2-(4-(6-((6-acetyl-8-cyclopentyl-5-methyl-7-oxo-7,8-dihydropyrido[2,3-d]pyrimidin-2-yl)amino)pyridin-3-yl)piperazin-1-yl)ethyl)(methyl)amino)-2-(2,6-dioxopiperidin-3-yl) isoindoline-1,3-dione]: the IC50 in test [1] was 50 to 200 nM. Besides, the DC50 on CDK4 and on CDK6 was 50 to 200 nM in each case. The Dmax on CDK4 and at CDK6 was greater than 60% throughout.

As for `CC(=O)c1c(C)c2cnc(Nc3ccc(N4CCN(C(=O)N5CCN(C6CCN(c7ccc8c(c7)CN(C7CCC(=O)NC7=O)C8=O)CC6)CC5)CC4)cn3)nc2n(C2CCCC2)c1=O` (centres unmarked) [Compound 6, 3-(5-(4-(4-(4-(6-((6-acetyl-8-cyclopentyl-5-methyl-7-oxo-7,8-dihydropyrido[2,3-d]pyrimidin-2-yl)amino)pyridin-3-yl)piperazine-1-carbonyl)piperazin-1-yl)piperidin-1-yl)-1-oxoisoindolin-2-yl)piperidine-2,6-dione], in test [1], the IC50 was greater than 200 nM. At CDK4, this compound registered a DC50 greater than 200 nM and a Dmax greater than 50%. At CDK6, this compound returned a DC50 greater than 200 nM and a Dmax greater than 50%.

As to `CC(=O)c1c(C)c2cnc(Nc3ccc(N4CCN(CC5CN(c6ccc(N7CCC(=O)NC7=O)cc6)C5)CC4)cn3)nc2n(C2CCCC2)c1=O` [Compound 111, 1-(4-(3-((4-(6-((6-acetyl-8-cyclopentyl-5-methyl-7-oxo-7,8-dihydropyrido[2,3-d]pyrimidin-2-yl)amino)pyridin-3-yl)piperazin-1-yl)methyl)azetidin-1-yl)phenyl) dihydropyrimidine-2,4(1H,3H)-dione], in test [1], the IC50 is less than 50 nM. Further, at CDK4, the DC50 was less than 50 nM and the Dmax is greater than 80%. On CDK6, this compound gave a DC50 of less than 50 nM and a Dmax greater than 80%.

Take `Cc1nc2c(F)cc(-c3nc(Nc4ccc(CN5CCN(CC6CN(c7ccc8c(c7)CN(C7CCC(=O)NC7=O)C8=O)C6)CC5)cn4)ncc3F)cc2n1C(C)C` (centres unmarked) [Compound 95, 3-(5-(3-((4-((6-((5-fluoro-4-(4-fluoro-1-isopropyl-2-methyl-1H-benzo[d]imidazol-6-yl)pyrimidin-2-yl)amino)pyridin-3-yl)methyl)piperazin-1-yl)methyl)azetidin-1-yl)-1-oxoisoindolin-2-yl)piperidine-2,6-dione]: the IC50 in test [1] was less than 50 nM. In addition, the DC50 on CDK4 and on CDK6 was less than 50 nM in each case. Further, the Dmax at CDK4 and on CDK6 was greater than 80% in each case.

Consider `Cc1nc2c(F)cc(-c3nc(Nc4ccc(CC5CCN(C6CCN(c7ccc(NC8CCC(=O)NC8=O)cc7)CC6)CC5)cn4)ncc3F)cc2n1C(C)C` (centres unmarked) [Compound 172, 3-((4-(4-((6-((5-fluoro-4-(4-fluoro-1-isopropyl-2-methyl-1H-benzo[d]imidazol-6-yl)pyrimidin-2-yl)amino)pyridin-3-yl)methyl)-[1,4′-bipiperidin]-1′-yl)phenyl)amino) piperidine-2,6-dione], for which, in test [1], the IC50 was less than 50 nM. On CDK4, this compound displayed a 50% degradation concentration (DC50) of 50 to 200 nM and a Dmax greater than 80%. On CDK6, this compound showed a half-maximal degradation concentration (DC50) of 50 to 200 nM and a Dmax greater than 80%.
